Source: patent publication US12583855B2, “RET selective inhibitor, preparation method therefor and use thereof” (SHOUYAO HOLDINGS (BEIJING) CO., LTD., priority 2019, dated 2026)
Substitutions are numbered along the chain they refer to.

Columns and labels:
[1] = target: VEGFR2 (Homo sapiens, UniProt P35968); assay: In vitro enzymatic activity assay on VEGFR2 (HTRF); type: biochemical; conditions: GST-VEGFR2 0.1 nM, ATP 2.5 μM
Procedure: 3. n Vitro Enzymatic Activity Assay for Compounds on VEGFR2
The compounds were diluted 5-fold with 100% DMSO starting from 1 mM (7 concentrations in total), and 2 μL of each concentration was added to 48 μL of reaction buffer (50 mM HEPES pH 7.5, 0.1 mM Na3VO4, 5 mM MgCl2, 1 mM MnCl2, 1 mM DTT, 0.001% Tween 20, and 100 μg/ml BSA) for dilution and mixing. 2.5 μL of compounds and 5 μL of GST-VEGFR2 (final concentration of 0.1 nM) were added to a 384-well plate (OptiPlate-384, purchased from PerkinElmer), the mixture was mixed by centrifugation, and 2.5 μL of ATP (final concentration of 2.5 μM) and TK Peptide Substrate mixture (final concentration of 1 μM, purchased from Cisbio) were added to start the reaction, with a total reaction volume of 10 μL. The 384-well plate was placed in an incubator and reacted at 23° C. for 1.5 h before the reaction was stopped by the addition of 5 μL of TK Antibody (purchased from Cisbio) and 5 μL of Streptavidin-XL665 (purchased from Cisbio). After further incubation in the incubator for 1 h. fluorescence values (excitation at 320 nm, detecting emitted light at 665 nm and 620 nm, and a ratio of the two as an enzyme activity signal) were read on Envision (purchased from PerkinElmer). The enzymatic activity signal of VEGFR2 was measured at 7 concentrations for each compound and the data were calculated using GraphPad Prism software to obtain the IC50 value for the compound.

[2] = Pharmacokinetic data of compounds in male SD rats; type: in vivo; conditions: rat, po, intragastric, 5 mg/kg, suspension MC 0.5%, plasma
Procedure: 6. Pharmacokinetic Data of Compounds
Male SD rats (Beijing Vital River Laboratory Animal Technology Co., Ltd) were divided into groups. 3 in each group, received intragastric administration with the suspension of the test sample (5 mg/kg, suspensions MC 0.5%), respectively. Animals were fasted overnight prior to the experiment from 10 h before dosing to 4 h after dosing. Blood was collected 0.25, 0.5, 1, 2, 4, 6, 8, and 24 h after administration, respectively. After isoflurane anesthesia using a small animal anesthesia machine, 0.3 mL of whole blood samples was taken through the fundus venous plexus, placed in a heparin anticoagulant tube, and were centrifuged at 4° C. 4000 rpm for 5 min plasma was transferred to the centrifuge tube, and stored at −80° C. until analysis. Samples in the plasma were extracted using protein precipitation and the extracts were analyzed by LC/MS.

[3] = target: T1, RET^WT (Homo sapiens, UniProt P07949); assay: In vitro enzymatic activity assay on RET^WT (HTRF); type: biochemical; conditions: GST-RET^WT (658-1114 aa) 0.5 nM, ATP 25 μM
T1 construct: GST-RET^WT (658-1114 aa, final concentration of 0.5 nM)
T1 sequence (P07949 658-1114): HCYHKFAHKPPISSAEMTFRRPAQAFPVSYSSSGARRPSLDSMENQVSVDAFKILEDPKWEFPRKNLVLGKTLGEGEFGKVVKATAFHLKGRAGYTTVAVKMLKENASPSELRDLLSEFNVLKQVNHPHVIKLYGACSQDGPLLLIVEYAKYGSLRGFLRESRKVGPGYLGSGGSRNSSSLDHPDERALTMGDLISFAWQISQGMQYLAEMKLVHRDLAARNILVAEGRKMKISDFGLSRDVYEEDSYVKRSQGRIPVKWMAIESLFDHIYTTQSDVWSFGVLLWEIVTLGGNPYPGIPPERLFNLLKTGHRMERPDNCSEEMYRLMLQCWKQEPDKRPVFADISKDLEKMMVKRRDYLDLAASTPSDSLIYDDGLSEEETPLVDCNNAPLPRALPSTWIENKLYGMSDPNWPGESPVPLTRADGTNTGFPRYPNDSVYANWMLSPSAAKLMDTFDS
Procedure: 1. In Vitro Enzymatic Activity Assay for Compounds on RET^WT
The compounds were diluted 5-fold with 100% DMSO starting from 0.2 mM (7 concentrations in total), and 2 μL of each concentration was added to 48 μL of reaction buffer (50 mM HEPES pH7.5, 0.1 mM Na3VO4, 5 mM MgCl2. 1 mM DTT, 0.001% Tween 20, and 100 μg/ml BSA) for dilution and mixing.
The 384-well plate was placed in an incubator and reacted at 23° C. for 2 h before the reaction was stopped by the addition of 5 μL of TK Antibody (purchased from Cisbio) and 5 μL of Streptavidin-XL665 (purchased from Cisbio). […] The enzymatic activity signal of RET^WT was measured at 7 concentrations for each compound and the data were calculated using GraphPad Prism software to obtain the IC50 value for the compound.

[4] = target: T2, RET^V804M (Homo sapiens, UniProt P07949, V804M); assay: In vitro enzymatic activity assay on RET^V804M (HTRF); type: biochemical; conditions: GST-RET^V804M (658-1114 aa) 0.02 nM, ATP 1.5 μM
T2 construct: GST-RET^V804M (658-1114 aa, final concentration of 0.02 nM)
T2 sequence (P07949 658-1114 V804M): T1 sequence (P07949 658-1114) with V147M

VEGFR2, sequence (P35968 20-1356): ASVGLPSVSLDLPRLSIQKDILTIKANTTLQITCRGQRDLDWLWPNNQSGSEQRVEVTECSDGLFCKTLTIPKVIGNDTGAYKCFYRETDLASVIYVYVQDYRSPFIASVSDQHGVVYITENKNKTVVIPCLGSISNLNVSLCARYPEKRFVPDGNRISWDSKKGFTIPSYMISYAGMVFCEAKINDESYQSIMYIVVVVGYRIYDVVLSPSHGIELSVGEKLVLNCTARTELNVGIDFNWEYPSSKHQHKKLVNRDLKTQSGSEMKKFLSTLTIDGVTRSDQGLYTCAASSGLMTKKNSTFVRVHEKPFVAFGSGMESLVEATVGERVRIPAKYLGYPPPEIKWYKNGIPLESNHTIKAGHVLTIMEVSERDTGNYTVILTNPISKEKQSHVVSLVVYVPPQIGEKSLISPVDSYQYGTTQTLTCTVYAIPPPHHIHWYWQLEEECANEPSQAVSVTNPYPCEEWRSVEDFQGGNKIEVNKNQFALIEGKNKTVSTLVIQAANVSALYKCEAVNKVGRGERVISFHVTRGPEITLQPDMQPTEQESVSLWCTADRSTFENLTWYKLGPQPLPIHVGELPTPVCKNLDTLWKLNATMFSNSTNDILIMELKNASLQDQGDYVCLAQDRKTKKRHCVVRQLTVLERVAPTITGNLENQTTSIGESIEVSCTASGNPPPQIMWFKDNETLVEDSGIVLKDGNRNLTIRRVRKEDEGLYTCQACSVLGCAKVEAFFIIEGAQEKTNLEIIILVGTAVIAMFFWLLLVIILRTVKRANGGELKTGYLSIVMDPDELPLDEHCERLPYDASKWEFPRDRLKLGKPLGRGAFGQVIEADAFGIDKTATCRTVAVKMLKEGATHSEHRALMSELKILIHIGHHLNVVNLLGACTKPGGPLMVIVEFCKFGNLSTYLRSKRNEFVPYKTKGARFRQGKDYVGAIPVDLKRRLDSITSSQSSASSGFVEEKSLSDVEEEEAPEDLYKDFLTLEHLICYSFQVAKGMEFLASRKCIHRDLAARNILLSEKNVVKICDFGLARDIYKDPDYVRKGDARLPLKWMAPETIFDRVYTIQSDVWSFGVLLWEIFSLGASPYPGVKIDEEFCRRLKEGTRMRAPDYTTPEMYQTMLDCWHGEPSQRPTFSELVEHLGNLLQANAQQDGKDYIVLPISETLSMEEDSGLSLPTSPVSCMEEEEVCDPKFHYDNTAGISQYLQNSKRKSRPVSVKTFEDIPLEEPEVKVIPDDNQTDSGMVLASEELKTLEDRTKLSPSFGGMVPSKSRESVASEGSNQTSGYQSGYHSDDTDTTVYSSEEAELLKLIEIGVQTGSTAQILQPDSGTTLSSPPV

SMILES | IC50 [1] [nM] | IC50 [3] [nM] | IC50 [4] [nM] | AUC(0-inf) [2] [ng·h/mL] | Cmax [2] [ng/mL] | Tmax [2] [h] | half-life [2] [min]
COc1ccc(CN2CCN(c3ccc(-c4cc(N5CC(F)(F)C5)cn5ncc(C#N)c45)cn3)CC2)cn1 [Example 26, 6-(3,3-difluoroazetidin-1-yl)-4-(6-(4-((6-methoxypyridin-3-yl)methyl)piperazin-1-yl)pyridin-3-yl)pyrazolo[1,5-a]pyridine-3-carbonitrile] | 95.5 | 0.422 |  | 45000 | 6000 | 1.75 | 294
CS(=O)(=O)c1ccc(CN2C3CC2CN(c2cnc(-c4cc(-c5cnn(C(F)F)c5)cn5ncc(C#N)c45)cn2)C3)cc1 [Example 70, 4-(5-(6-(4-(methylsulfonyl)benzyl)-3,6-diazabicyclo[3.1.1]heptan-3-yl)pyrazin-2-yl)-6-(1-(difluoromethyl)-1Hpyrazol-4-yl) pyrazolo[1,5-a] pyridine-3-carbonitrile] | 55.7 | 0.324 | 2.52 |  |  |  | 
CS(=O)(=O)c1ccccc1CN1C2CC1CN(c1ccc(-c3cc(N4CC(F)(F)C4)cn4ncc(C#N)c34)cn1)C2 [Example 67, 6-(3,3-difluoroazetidin-1-yl)-4-(6-(6-(2-(methylsulfonyl)benzyl)-3,6-diazabicyclo [3.1.1]heptan-3-yl)pyridin-3-yl)pyrazolo[1,5-a]pyridine-3-carbonitrile] | 80.5 | 0.465 | 3.97 |  |  |  | 
CS(=O)(=O)c1ccc(CN2C3CCC2CN(c2ccc(-c4cc(-c5cnn(C(F)F)c5)cn5ncc(C#N)c45)cn2)C3)cc1 [Example 69, 6-(1-difluoromethyl-1Hpyrazol-4-yl)-4-(6-(8-(4-(methylsulfonyl)benzyl)-3,8-diazabicyclo[3.2.1]octan-3-yl)pyridin-3-yl)pyrazolo[1,5-a]pyridine-3-carbonitrile] | 63.1 | 0.716 | 5.47 |  |  |  | 
CS(=O)(=O)c1ccc(CN2C3CC2CN(c2ccc(-c4cc(-c5cnn(C(F)(F)F)c5)cn5ncc(C#N)c45)cn2)C3)cc1 [Example 84, 4-(6-(6-(4-(methylsulfonyl)benzyl)-3,64-diazabicyclo[3.1.1]heptan-3-yl)pyridin-3-yl)-6-(1-(trifluoromethyl)-1Hpyrazol-4-yl) pyrazolo[1,5-a] pyridine-3-carbonitrile] | 13.3 | 0.309 |  | 27300 | 3090 | 2 | 167
COC/C=C/C(=O)N1C2CC1CN(c1ccc(-c3cc(-c4cnn(C)c4)cn4ncc(C#N)c34)cn1)C2 [Example 61, (E)-4-(6-(6-(4-methoxybut-2-enoyl)-3,6-diazabicyclo[3.1.1]heptan-3-yl)pyridin-3-yl)-6-(1-methyl-1Hpyrazol-4-yl)pyrazolo[1,5-a]pyridine-3-carbonitrile] | 18.2 | 0.779 | 6.37 |  |  |  | 

Further molecules by falling IC50 [1], results first:

IC50 [1] [nM] | IC50 [3] [nM] | IC50 [4] [nM] | SMILES | AUC(0-inf) [2] [ng·h/mL] | Cmax [2] [ng/mL] | Tmax [2] [h] | half-life [2] [min]
16.9 | 0.179 | 2.58 | CS(=O)(=O)c1ccc(CN2C3CC2CN(c2ccc(-c4cc(N5CC(F)(F)C5)cn5ncc(C#N)c45)cn2)C3)cc1 [Example 36, 6-(3,3-difluoroazetidin-1-yl)-4-(6-(6-(4-(methylsulfonyl)benzyl)-3,6-diazabicyclo [3.1.1]heptan-3-yl)pyridin-3-yl)pyrazolo[1,5-a]pyridine-3-carbonitrile] |  |  |  | 
14.4 | 0.676 | 4.19 | CSc1cccc(CN2C3CC2CN(c2ccc(-c4cc(-c5cnn(C(F)F)c5)cn5ncc(C#N)c45)cn2)C3)n1 [Example 74, 6-(1-(difluoromethyl)-1Hpyrazol-4-yl)-4-(6-(6-((6-(methylthio)pyridin-2-yl)methyl)-3,6-diazabicyclo[3.1.1]heptan-3-yl)pyridin-3-yl)pyrazolo[1,5-a]pyridine-3-carbonitrile] |  |  |  | 
9.6 | 0.172 | 1.47 | CS(=O)(=O)c1ccc(CN2C3CC2CN(c2ccc(-c4cc(N5CC(C#N)C5)cn5ncc(C#N)c45)cn2)C3)cc1 [Example 35, 6-(3-cyanoazetidin-1-yl)-4-(6-(6-(4-(methylsulfonyl)benzyl)-3,6-diazabicyclo[3.1.1]heptan-3-yl)pyridin-3-yl)pyrazolo[1,5-a]pyridine-3-carbonitrile] |  |  |  | 
7.5 | 0.944 | 2.84 | COc1ccc(CN2CCN(c3ccc(-c4cc(N5CC(OC)C5)cn5ncc(C#N)c45)cn3)CC2)cn1 [Example 33, 6-(3-methoxyazetidin-1-yl)-4-(6-(4-((6-methoxypyridin-3-yl)methyl)piperazin-1-yl)pyridin-3-yl)pyrazolo[1,5-a]pyridine-3-carbonitrile] |  |  |  | 
4.49 | 0.352 | 1.21 | C=CC(=O)N1CCN(c2ccc(-c3cc(-c4cnn(C)c4)cn4ncc(C#N)c34)cn2)CC1 [Example 1, 4-(6-(4-acryloylpiperazin-1-yl)pyridin-3-yl)-6-(1-methyl-1Hpyrazol-4-yl)pyrazolo[1,5-a]pyridine-3-carbonitrile] |  |  |  | 
3.44 | 0.421 | 0.332 | COc1ccc(CN2C3CC2CN(c2ccc(-c4cc(N5CC(C#N)C5)cn5ncc(C#N)c45)cn2)C3)cn1 [Example 13, 6-(3-cyanoazetidin-1-yl)-4-(6-(6-((6-methoxypyridin-3-yl)methyl)-3,6-diazabicyclo[3.1.1]heptan-3-yl)pyridin-3-yl)pyrazolo[1,5-a]pyridine-3-carbonitrile] |  |  |  | 
1.55 | 0.762 | 0.629 | COc1ccc(CN2C3CC2CN(c2ccc(-c4cc(N5CC6(COC6)C5)cn5ncc(C#N)c45)cn2)C3)cn1 [Example 14, 4-(6-(6-((6-methoxypyridin-3-yl)methyl)-3,6-diazabicyclo[3.1.1]heptan-3-yl)pyridin-3-yl)-(2-oxa-azaspiro[3.3]hepta-6-yl)pyrazolo[1,5-a]pyridine-3-carbonitrile] |  |  |  | 
